Test results taken from patent US20240207250A1, “AGENT FOR PROMOTING LIPID REDUCTION” (MITSUBISHI GAS CHEMICAL COMPANY, INC., priority 2021, published 2024).

Experiments:
Assay type in all cases: in vivo
daphnids (Daphnia magna) [1] = test: Caloric restriction equivalent amount from correlation between amount of feed and fat mass; conditions: calculated from fat mass (fluorescence intensity) with feed/fat mass regression line; Comparative Example 1 = 0
Description: Then, the logarithm of the amount of the feed and the fat mass (fluorescence intensity) obtained after the breeding were plotted as illustrated in FIG. 2 (n=5). When an approximate straight line was drawn on the plots, the approximate straight line was represented by the following equation, and the correlation coefficient was R=0.996. [formula] [formula] [formula] This equation of the approximate straight line can be regarded as a relational expression between the logarithm of the amount of the feed, namely, calorie intake, and the fat mass (fluorescence intensity) after the breeding.

daphnids (Daphnia magna) [2] = test: Measurement of body length of daphnids; conditions: for Body Length (mm), Average: daphnids bred 4 days with substance, Arg-IPQ 80 mg/L, Leu-IPQ 80 mg/L, ECGC 1 mg/L, carnitine 2 mg/L, control 2.37 mm; for body length as compared with the control (Comparative Example 1), in words: daphnids bred 4 days with substance in breeding water
daphnids (Daphnia magna) [3] = test: Measurement of fat mass of daphnids by Nile red fluorescence (lipid reduction promotion test); conditions: for Body Fat Mass vs Comparative Example 1 (%), Average: Nile red fluorescence intensity, Comparative Example 1 (no IPQ) = 100, 5 daphnids, 4 days after addition to breeding water, H-IPQ 50 μM or 200 μM, Arg-IPQ 80 mg/L, Leu-IPQ 80 mg/L, ECGC 1 mg/L, carnitine 2 mg/L; for body fat mass as compared with the control (Comparative Example 1), in words: daphnids bred 4 days with substance in breeding water
Experimental: In the present examples, […] (scientific name: Daphnia magna) were used in a lipid reduction promotion test. As chlorella (scientific name: Chlorella vulgaris) used as a feed for the […], a product of […] Center LLC was used. Specifically, parent […] bred in a water tank at 22° C. under a day cycle of an 8/16-hour light/dark cycle. The chlorella used as the feed was supplied in an amount of 8×10^7 on Monday, Wednesday, and Friday. Breeding water held in the water tank was exchanged at a frequency of once a week. Under these breeding conditions, child […] born from the parent […] used in the following examples. 10 child […] bred in 500 mL of mineral water (at 22° C.) under a day cycle of an 8/16-hour light/dark cycle. […] 10 child […] bred in 500 mL of mineral water (at 22° C.) under a day cycle of an 8/16-hour light/dark cycle. […] 10 child […] bred in 500 mL of mineral water (at 22° C.) under a day cycle of an 8/16-hour light/dark cycle. […] 10 child […] bred in 500 mL of mineral water (at 22° C.) under a day cycle of an 8/16-hour light/dark cycle. […] 10 child […] bred in 500 mL of mineral water (at 22° C.) under a day cycle of an 8/16-hour light/dark cycle. […] 10 child […] bred in 500 mL of mineral water (at 22° C.) under a day cycle of an 8/16-hour light/dark cycle. […] The fat mass was measured in accordance with Non Patent Literature 4. […] Thereafter, the […] washed with water, and taken out. Water was added thereto in an amount of 300 μL per […], and the resultant was ground by applying ultrasonic waves for 15 minutes. The thus obtained ground liquid was centrifuged to collect a supernatant. The resultant was measured for a fluorescence intensity through 485 nm excitation/535 nm detection using a plate reader. This measurement operation was performed on 5 […].

daphnids (Daphnia magna) [4] = test: Evaluation of movement capability of daphnids (video analysis of moving distance); conditions: for moving distance for 30 seconds, Daphnid 1: individual Daphnid 1, control 20.01 cm; for moving distance for 30 seconds, Daphnid 2: individual Daphnid 2, control 22.67 cm; for moving distance for 30 seconds, Daphnid 3: individual Daphnid 3, control 18.62 cm; for amount of exercise improved (times vs control): moving distance relative to control daphnids; for moving distance for 30 seconds, Average ± Standard Deviation: three daphnids, control 20.46 ± 2.06 cm
Experimental: The daphnids bred under condition of no IPQ described in Comparative Example 1 (control), and the daphnids bred in the presence of H-IPQ, Arg-IPQ, and Leu-IPQ respectively described in Examples 1 to 3 were used. 20 mL of mineral water was put in each of four 100 mm-glass petri dishes, into each of which one daphnid bred in Comparative Example 1 and Examples 1 to 3 was transferred. These petri dishes were placed to be adjacent to one another, and the movement for 1 minute of the daphnids was recorded. This operation was repeated three times using different individuals. Then, Kinovea video analysis software was used to analyze a moving distance for 30 seconds of each daphnid.
It is noted that the daphnids were in a state of always moving in the test, which is regarded as a state of exercise with an intensity of 3 METs or more in terms of human exercise intensity.

Structure (SMILES) | Caloric Restriction Equivalent Amount (0 meaning no caloric restriction) (daphnids (Daphnia magna) [1]) [%] | Body Length (mm), Average (daphnids (Daphnia magna) [2]) [mm] | Body Fat Mass vs Comparative Example 1 (%), Average (daphnids (Daphnia magna) [3]) [%] | body fat mass as compared with the control (Comparative Example 1), in words (daphnids (Daphnia magna) [3]) | body length as compared with the control (Comparative Example 1), in words (daphnids (Daphnia magna) [2]) | moving distance for 30 seconds, Daphnid 1 (daphnids (Daphnia magna) [4]) [cm] | moving distance for 30 seconds, Daphnid 2 (daphnids (Daphnia magna) [4]) [cm] | moving distance for 30 seconds, Daphnid 3 (daphnids (Daphnia magna) [4]) [cm] | amount of exercise improved (times vs control) (daphnids (Daphnia magna) [4]) | moving distance for 30 seconds, Average ± Standard Deviation (daphnids (Daphnia magna) [4]) [cm]
O=C(O[C@@H]1Cc2c(O)cc(O)cc2O[C@@H]1c1cc(O)c(O)c(O)c1)c1cc(O)c(O)c(O)c1 [Comparative Example 2, Epigallocatechin Gallate, reference compound] | −7 | 2.43 | 102.0 | neither increased not reduced | – | – | – | – | – | –
C[N+](C)(C)CC(O)CC(=O)[O-] (stereo not shown) [Comparative Example 3, carnitine, reference compound] | −231 | 2.82 | 133.8 | increased | – | – | – | – | – | –
O=C([O-])c1cc2c(=O)c3ncn4c(C(=O)[O-])cc(C(=O)[O-])c(c2[nH]1)c34.[Na+].[Na+].[Na+] [Example 1, glycine residue IPQ trisodium] | 73 | – | 60.3 | reduced | not grown to be very large | 24.23 | 21.43 | 27.85 | about 1.2 times | 24.50 ± 3.22
N=C(N)NCCCc1nc2c(=O)c3cc(C(=O)O)[nH]c3c3c(C(=O)[O-])cc(C(=O)[O-])n1c23.[Na+].[Na+] [Example 2, Arginine Residue IPQ Disodium] | 45 | 2.64 | 79.7 | reduced | grown to be larger | 25.33 | 30.35 | 30.47 | 1.4 times | 28.72 ± 2.93
CC(C)Cc1nc2c(=O)c3cc(C(=O)O)[nH]c3c3c(C(=O)O)cc(C(=O)O)n1c23 [Example 3, leucine residue IPQ] | 62 | 2.52 | 69.9 | reduced | grown to be larger | 26.78 | 21.56 | 20.53 | 1.1 times | 22.96 ± 3.35
